According to PubChem BioAssay (NCI):
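Where inhibition never reached the appropriate level, the endpoint shown equals the highest concentration tested. Otherwise, values were interpolated linearly from a five-concentration, 48-hour dose response in 96-well plates. GI50: concentration for 50% inhibition of growth. TGI: concentration producing complete growth inhibition.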

Columns and labels:
Experiment in all cases: NCI tumour cell line growth inhibition, 48 h
SK-OV-3 ovarian = system: SK-OV-3 ovarian
TK-10 renal = system: TK-10 renal
IGROV1 ovarian = system: IGROV1 ovarian
T-47D breast = system: T-47D breast
DU-145 prostate = system: DU-145 prostate
SNB-75 CNS = system: SNB-75 CNS
786-0 renal = system: 786-0 renal
NCI-H522 lung = system: NCI-H522 lung
COLO 205 colon = system: COLO 205 colon
SF-539 CNS = system: SF-539 CNS

Compound	TGI (SK-OV-3 ovarian)	TGI (TK-10 renal)	TGI (IGROV1 ovarian)	TGI (T-47D breast)	TGI (DU-145 prostate)	TGI (SNB-75 CNS)	TGI (786-0 renal)	TGI (NCI-H522 lung)	TGI (COLO 205 colon)	TGI (SF-539 CNS)	GI50 (SK-OV-3 ovarian)	GI50 (SF-539 CNS)	GI50 (T-47D breast)	GI50 (DU-145 prostate)	GI50 (SNB-75 CNS)
Cc1ccc(C)n1-n1c(-c2ccccc2)n[nH]c1=O	> 100 µM	> 100 µM	> 100 µM	> 100 µM	> 100 µM	> 100 µM	> 100 µM	> 100 µM	> 100 µM	–	–	–	–	–	–
O=C(Nn1cnn2c(=O)c3ccccc3nc2c1=O)c1ccccc1	> 100 µM	> 100 µM	> 100 µM	> 100 µM	> 100 µM	> 100 µM	> 100 µM	> 100 µM	> 100 µM	> 100 µM	–	–	–	–	–
COc1ccccc1NC(=S)Nc1cc(C)ccn1	> 100 µM	> 100 µM	> 100 µM	> 100 µM	> 100 µM	> 100 µM	> 100 µM	> 100 µM	> 100 µM	> 100 µM	–	–	–	–	–
COC(=O)[C@@H]1Cc2cc(O)c(O)cc2C2(CCN(C)CC2)O1	> 10 µM	> 10 µM	> 10 µM	> 10 µM	> 10 µM	> 10 µM	> 10 µM	> 10 µM	> 10 µM	> 10 µM	–	–	–	–	–
CN(C)C(=O)C1CCN(Cc2c[nH]c3ccccc23)CC1	> 100 µM	> 100 µM	> 100 µM	> 100 µM	> 100 µM	> 100 µM	> 100 µM	> 100 µM	> 100 µM	–	–	–	–	–	–
COc1ccc2c(c1)C(N)=C(Cc1ccncc1)C2=O	> 100 µM	> 100 µM	> 100 µM	> 100 µM	> 100 µM	> 100 µM	> 100 µM	> 100 µM	> 100 µM	> 100 µM	–	–	–	–	–
COC1(CC[C@H](C)COC2OC(CO)C(O)C(O)C2O)O[C@H]2C[C@H]3[C@@H]4CC=C5C[C@@H](OC6OC(CO)C(O)C(OC7OC(CO)C(O)C(O)C7O)C6OC6OC(C)C(O)C(O)C6O)CC[C@]5(C)[C@H]4CC[C@]3(C)[C@H]2[C@@H]1C (some centres undefined)	24.5 µM	> 69.7 µM	11.8 µM	9.68 µM	4.29 µM	7.25 µM	5.29 µM	7.41 µM	16.2 µM	4.85 µM	–	–	–	–	–
Cn1c2c3c(F)c(F)ccc3nc-2cc2ccccc21	21.1 µM	3.91 µM	15.9 µM	4.39 µM	10.2 µM	5.71 µM	11.8 µM	14.3 µM	10.7 µM	13.5 µM	–	–	–	–	–
CN(C)c1ccc(C2ON=C(c3ccccc3)N2C23CC4CC(CC(C4)C2)C3)cc1 (centres undefined)	> 10 µM	> 10 µM	> 10 µM	> 10 µM	> 10 µM	> 10 µM	> 10 µM	> 10 µM	> 10 µM	> 10 µM	–	–	–	–	–
O=C(CN(c1ccc(S(=O)(=O)O)cc1)c1ccc(S(=O)(=O)O)cc1)Nn1cnc2ccc(S(=O)(=O)N(c3ccc(S(=O)(=O)O)cc3)c3ccc(S(=O)(=O)O)cc3)cc2c1=O	> 100 µM	> 100 µM	> 100 µM	> 100 µM	> 100 µM	> 100 µM	> 100 µM	> 100 µM	> 100 µM	> 100 µM	–	–	–	–	–
Cc1cc(C)n(C(=O)CSc2nnc(SCC(=O)n3nc(C)cc3C)s2)n1	> 100 µM	> 100 µM	–	> 100 µM	> 100 µM	> 100 µM	> 100 µM	–	> 100 µM	> 100 µM	–	–	–	–	–
Oc1ccc(-c2cn3cc(C(F)(F)F)ccc3n2)cc1	> 100 µM	> 100 µM	> 100 µM	60.7 µM	> 100 µM	> 100 µM	> 100 µM	88 µM	> 100 µM	–	–	–	–	–	–
COc1ccc2nc3n(c2c1)C(c1c(Cl)cccc1Cl)SC3 (centres undefined)	> 100 µM	> 100 µM	> 100 µM	> 100 µM	> 100 µM	> 100 µM	> 100 µM	–	> 100 µM	–	–	–	–	–	–
Cc1ccc(C2CC(c3cccc(Nc4ccncc4)c3)=NN2c2ccccc2)cc1 (centres undefined)	5.88 µM	–	–	4.85 µM	3.6 µM	2.88 µM	–	–	–	3.16 µM	2.34 µM	1.74 µM	2.02 µM	1.89 µM	1.32 µM
CC(C)CN(CC#N)CC(C)C	> 100 µM	> 100 µM	> 100 µM	> 100 µM	> 100 µM	> 100 µM	> 100 µM	> 100 µM	> 100 µM	–	–	–	–	–	–
O=[As](O)(O)c1ccc2nc3cc([As](=O)(O)O)ccc3nc2c1	–	> 100 µM	> 100 µM	> 100 µM	> 100 µM	> 100 µM	> 100 µM	> 100 µM	–	–	–	–	–	–	–
N#Cc1c(-c2ccccc2)c(C#N)c(=O)n(C2OC(CO)C(O)C(O)C2O)c1S (centres undefined)	> 100 µM	> 100 µM	> 100 µM	> 100 µM	> 100 µM	> 100 µM	> 100 µM	> 100 µM	–	> 100 µM	–	–	–	–	–
CCOC(=O)N1[C@@H]2CCC[C@@H]2C(=O)[C@@H]2CCC[C@@H]21	> 100 µM	–	> 100 µM	> 100 µM	> 100 µM	> 100 µM	> 100 µM	–	> 100 µM	–	–	–	–	–	–
O=c1[nH]c(=O)n(C/C=C/CBr)nc1Br	–	31.7 µM	29.5 µM	28.2 µM	> 100 µM	24.3 µM	26.3 µM	14.5 µM	27.8 µM	27.7 µM	–	–	–	–	–
Cc1cc(C)n(CN(Cn2nc(C)cc2C)c2ccccc2)n1	> 100 µM	> 100 µM	95.2 µM	> 100 µM	> 100 µM	–	48.5 µM	52.8 µM	28.1 µM	38.3 µM	–	–	–	–	–
CCCCCCCCCc1c(O)c(O)c(CCCCCCCCC)c(CCCCCCCCC)c1CCCCCCCCC	> 100 µM	> 100 µM	> 100 µM	> 100 µM	> 100 µM	–	> 100 µM	> 100 µM	> 100 µM	> 100 µM	–	–	–	–	–
CN(C)c1ccc(C(=NN)c2ccc(N(C)C)cc2)cc1	> 85.5 µM	3.66 µM	> 100 µM	> 100 µM	> 35 µM	2.83 µM	36.5 µM	18.7 µM	–	–	–	–	–	–	–
O=C(O)c1ccc(Nc2nc3cc(C(F)(F)F)ccc3nc2-c2ccccc2)cc1	–	39.3 µM	35.9 µM	35.1 µM	95.5 µM	63.9 µM	35 µM	32.8 µM	37.9 µM	56.4 µM	–	–	–	–	–
